Holding throughout (assay): Kinase panel profiling at 1 µmol/L (MSA or IMAP), percentage inhibition
Format in all cases: biochemical

Experiment [1] deals with panel of 255 wild-type kinases (Homo sapiens, UniProt Q9Y6E0). The settings on record: read-out: %-inhibition, MST3.
In experiment [2] the target is panel of 255 wild-type kinases (Homo sapiens, UniProt Q04759). Conditions: read-out: %-inhibition at 1 µmol/L, PKCθ.
The target in experiment [3] is panel of 255 wild-type kinases (Homo sapiens, UniProt P24941).
For experiment [4], the target named is panel of 255 wild-type kinases (Homo sapiens, UniProt P16591). The settings on record: read-out: %-inhibition at 1 µmol/L, FER.
For experiment [5], the target named is panel of 255 wild-type kinases (Homo sapiens, UniProt Q96GD4). The settings on record: read-out: %-inhibition AurB.
Experiment [6] addresses panel of 255 wild-type kinases (Homo sapiens, UniProt P11362). Conditions: read-out: %-inhibition at 1 µmol/L, FGFR1.
The target in experiment [7] is panel of 255 wild-type kinases (Homo sapiens, UniProt Q13131). The settings on record: read-out: %-inhibition AMPKα1/β1/γ1.
For experiment [8], the target named is panel of 255 wild-type kinases (Homo sapiens, UniProt P49841). Conditions: kinase GSK3β; 1 µmol/L single concentration.
Experiment [9] has as its target T1, panel of 255 wild-type kinases (Homo sapiens, UniProt Q06418).
T1 sequence (Q06418 41-890): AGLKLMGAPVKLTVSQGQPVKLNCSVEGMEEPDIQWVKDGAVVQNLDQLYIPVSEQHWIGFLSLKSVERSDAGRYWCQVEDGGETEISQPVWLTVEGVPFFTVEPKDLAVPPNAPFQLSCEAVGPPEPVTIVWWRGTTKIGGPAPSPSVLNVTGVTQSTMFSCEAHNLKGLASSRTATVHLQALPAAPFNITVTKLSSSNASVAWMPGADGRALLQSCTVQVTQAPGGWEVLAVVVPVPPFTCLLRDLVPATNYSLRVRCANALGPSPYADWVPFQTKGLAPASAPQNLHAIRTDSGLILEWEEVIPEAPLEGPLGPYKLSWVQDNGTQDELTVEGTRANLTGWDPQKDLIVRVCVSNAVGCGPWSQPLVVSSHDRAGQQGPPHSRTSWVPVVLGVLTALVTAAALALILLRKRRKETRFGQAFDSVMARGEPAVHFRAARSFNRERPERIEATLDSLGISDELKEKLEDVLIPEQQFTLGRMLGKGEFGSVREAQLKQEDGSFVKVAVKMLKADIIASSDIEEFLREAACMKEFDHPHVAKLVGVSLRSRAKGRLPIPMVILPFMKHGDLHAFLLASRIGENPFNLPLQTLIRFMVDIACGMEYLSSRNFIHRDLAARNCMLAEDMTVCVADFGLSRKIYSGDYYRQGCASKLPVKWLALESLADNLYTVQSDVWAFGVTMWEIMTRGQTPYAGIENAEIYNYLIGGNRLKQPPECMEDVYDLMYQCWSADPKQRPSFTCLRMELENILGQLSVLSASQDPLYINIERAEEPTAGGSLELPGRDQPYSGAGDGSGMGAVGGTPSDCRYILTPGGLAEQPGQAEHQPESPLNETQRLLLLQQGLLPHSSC
The settings on record: read-out: %-inhibition at 1 µmol/L, TYRO3.

Experiment [10] addresses panel of 255 wild-type kinases (Homo sapiens, UniProt P49761). Conditions: read-out: %-inhibition at 1 µmol/L, CLK3.
In experiment [11] the target is panel of 255 wild-type kinases (Homo sapiens, UniProt P04626). Conditions: read-out: %-inhibition at 1 µmol/L, HER2.
Experiment [12] concerns the target T2, panel of 255 wild-type kinases (Homo sapiens, UniProt P36888).
T2 sequence (P36888 27-993): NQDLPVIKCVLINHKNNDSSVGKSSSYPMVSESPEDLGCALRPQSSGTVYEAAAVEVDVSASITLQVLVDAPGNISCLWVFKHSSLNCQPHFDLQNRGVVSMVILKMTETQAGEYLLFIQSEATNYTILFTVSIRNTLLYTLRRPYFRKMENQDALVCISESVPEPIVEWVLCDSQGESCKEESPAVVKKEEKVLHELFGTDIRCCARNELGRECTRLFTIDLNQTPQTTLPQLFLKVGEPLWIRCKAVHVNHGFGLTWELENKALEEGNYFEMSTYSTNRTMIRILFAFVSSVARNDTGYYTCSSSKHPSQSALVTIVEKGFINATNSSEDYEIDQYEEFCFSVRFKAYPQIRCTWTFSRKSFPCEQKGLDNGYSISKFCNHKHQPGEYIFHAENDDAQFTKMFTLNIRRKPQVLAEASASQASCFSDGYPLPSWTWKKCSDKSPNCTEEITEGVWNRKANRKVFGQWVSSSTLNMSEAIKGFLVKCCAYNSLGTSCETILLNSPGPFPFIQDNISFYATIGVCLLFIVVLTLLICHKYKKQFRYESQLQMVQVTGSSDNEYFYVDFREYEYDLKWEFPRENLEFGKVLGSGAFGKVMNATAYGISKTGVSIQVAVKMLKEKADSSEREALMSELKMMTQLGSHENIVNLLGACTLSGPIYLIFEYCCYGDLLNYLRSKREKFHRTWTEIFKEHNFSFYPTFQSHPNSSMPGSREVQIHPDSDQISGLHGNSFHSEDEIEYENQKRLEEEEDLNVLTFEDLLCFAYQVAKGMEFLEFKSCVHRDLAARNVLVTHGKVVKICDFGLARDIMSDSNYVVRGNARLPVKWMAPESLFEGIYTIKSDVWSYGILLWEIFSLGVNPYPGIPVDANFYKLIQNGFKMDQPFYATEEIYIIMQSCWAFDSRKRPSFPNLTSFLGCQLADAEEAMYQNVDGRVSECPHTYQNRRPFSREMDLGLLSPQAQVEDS
The settings on record: read-out: %-inhibition at 1 µmol/L, FLT3.

Setting [13] is: MST3, 1 µmol/L single concentration.
Where [14] appears, read: kinase PKCθ, 1 µmol/L single concentration.
Setting [15] is: CDK2/CycA2 kinase assay, 1 µmol/L single concentration, read-out: %-inhibition CDK2/CycA2.
Setting [16] is: CDK2/CycE1 kinase assay, 1 µmol/L single concentration, read-out: %-inhibition CDK2/CycE1.
[17] abbreviates: kinase FER, 1 µmol/L single concentration.
The mark [18] stands for this setting: AurB kinase assay, 1 µmol/L single concentration.
Where [19] appears, read: kinase FGFR1, 1 µmol/L single concentration.
The mark [20] stands for this setting: AMPKα1/β1/γ1 kinase assay, 1 µmol/L single concentration.
[21] abbreviates: kinase TYRO3, 1 µmol/L single concentration.
Where [22] appears, read: kinase CLK3, 1 µmol/L single concentration.
Setting [23] is: kinase HER2, 1 µmol/L single concentration.
Setting [24] is: kinase FLT3, 1 µmol/L single concentration.

Like-named read-outs stand apart in the source and are kept apart here.

As for `Cc1nc(NC(=O)N2CCC[C@H]2C(N)=O)sc1-c1ccnc(C(C)(C)C(F)(F)F)c1` [alpelisib], the inhibition at 1 µM is -4.63% in experiment [1] (setting [13]); -0.212% in experiment [2] (setting [14]); -2.39% in [3] (setting [15]); -10% in [3] (setting [16]); -1.86% in experiment [4] (setting [17]); -4.26% in [5] (setting [18]). Further, the inhibition at 1 µM in experiment [6] (setting [19]) is 4.29%; in experiment [7] (setting [20]) it was -5%; in experiment [8], -4%; in experiment [9] (setting [21]), 1.52%; in experiment [10] (setting [22]), 22%; in [11] (setting [23]) it was 19%. Moreover, the inhibition at 1 µM in experiment [12] (setting [24]) came out at 6%.

For `Cn1cc(-c2cc3c(N4CCN(c5ncc([C@@](C)(N)c6ccc(F)cc6)cn5)CC4)ncnn3c2)cn1` [avapritinib], the inhibition at 1 µM in experiment [1] (setting [13]) was 12%; in experiment [2] (setting [14]) it was 2.6%; in experiment [3] (setting [15]), -0.664%; in experiment [3] (setting [16]), -37%; in experiment [4] (setting [17]), 1.71%; in experiment [5] (setting [18]), 20%. Moreover, the inhibition at 1 µM in experiment [6] (setting [19]) was 41%; in experiment [7] (setting [20]), 9%; in [8], -5.32%; in experiment [9] (setting [21]), 72%; in [10] (setting [22]), 3.76%; in experiment [11] (setting [23]), 12%. Besides, the inhibition at 1 µM in experiment [12] (setting [24]) stood at 100%.

For `Cn1cnc2c(F)c(Nc3ccc(Br)cc3F)c(C(=O)NOCCO)cc21` [binimetinib], the inhibition at 1 µM in experiment [1] (setting [13]) was 1.89%; in experiment [2] (setting [14]), -2.27%; in [3] (setting [15]) it was 2.3%; in [3] (setting [16]), -14%; in experiment [4] (setting [17]), 4.71%; in [5] (setting [18]) it was -3.18%. In addition, the inhibition at 1 µM is 2% in experiment [6] (setting [19]); -7% in [7] (setting [20]); -1.84% in [8]; 5.28% in experiment [9] (setting [21]); 0.514% in [10] (setting [22]); 1.43% in experiment [11] (setting [23]). For the same compound, in experiment [12] (setting [24]), the inhibition at 1 µM was 12%.

For the compound `CNC(=O)c1ccc(-c2cnc3ncc(Cc4ccc5ncccc5c4)n3n2)cc1F` [capmatinib], the inhibition at 1 µM in experiment [1] was 0.296%; in experiment [2], -5.31%; in [3] (read-out: %-inhibition CDK2/CycA2), 1.63%; in experiment [3] (read-out: %-inhibition CDK2/CycE1) it was -47%; in experiment [4], 2.2%; in experiment [5], 4.24%. Besides, the inhibition at 1 µM in experiment [6] was -0.662%; in [7], -4.64%; in experiment [9] it was 7%; in experiment [10] it was 8%; in [11], 9%; in experiment [12], 50%.

For `CN1CCN(c2ccc(C(=O)Nc3n[nH]c4ccc(Cc5cc(F)cc(F)c5)cc34)c(NC3CCOCC3)c2)CC1` [entrectinib], the inhibition at 1 µM worked out at 7.48% in [1] (setting [13]); 10% in experiment [2] (setting [14]); 20% in [3] (setting [15]); 11% in experiment [3] (setting [16]); 99% in [4] (setting [17]); 48% in [5] (setting [18]). For the same compound, the inhibition at 1 µM is 90% in experiment [6] (setting [19]); 55% in experiment [7] (setting [20]); -1.6% in experiment [8]; 20% in experiment [9] (setting [21]); 3.46% in experiment [10] (setting [22]); 22% in experiment [11] (setting [23]).

As for `CCN1CCN(c2ccc(Nc3cc(N(C)C(=O)Nc4c(Cl)c(OC)cc(OC)c4Cl)ncn3)cc2)CC1` [infigratinib], the inhibition at 1 µM in experiment [1] (setting [13]) was 7%; in experiment [2] (setting [14]) it was -3%; in [3] (setting [15]) it was 11%; in experiment [3] (setting [16]), -33%; in [4] (setting [17]), 9.48%; in experiment [5] (setting [18]), -5%. Further, the inhibition at 1 µM in experiment [6] (setting [19]) was 100%; in experiment [7] (setting [20]) it was -4%; in [8], -9%; in experiment [9] (setting [21]), 10%; in experiment [10] (setting [22]), 12%; in experiment [11] (setting [23]), 4.73%.

On to `C[C@H]1Oc2cc(cnc2N)-c2c(nn(C)c2C#N)CN(C)C(=O)c2ccc(F)cc21` [lorlatinib], for which the inhibition at 1 µM in experiment [1] (setting [13]) was -1.26%; in experiment [2] (setting [14]), 3%; in experiment [3] (setting [15]), 1.87%; in experiment [3] (setting [16]), -6.33%; in [5] (setting [18]), 5%; in experiment [6] (setting [19]) it was 3.43%. In addition, the inhibition at 1 µM in [7] (setting [20]) is -3.58%; in experiment [8] it was -4.7%; in experiment [9] (setting [21]), 9%; in experiment [10] (setting [22]) it was 0.641%; in [11] (setting [23]), 21%; in experiment [12] (setting [24]), 13%.

For `CCN1C(=O)N(c2c(F)c(OC)cc(OC)c2F)Cc2cnc3[nH]c(CN4CCOCC4)cc3c21` [pemigatinib], the inhibition at 1 µM is 80% in experiment [1] (setting [13]); -2.16% in [2] (setting [14]); 3.55% in [3] (setting [15]); 7% in [3] (setting [16]); -3% in [4] (setting [17]); 2.32% in [5] (setting [18]). Besides, the inhibition at 1 µM in [7] (setting [20]) was -6.52%; in experiment [8], -7%; in experiment [9] (setting [21]), 4%; in experiment [10] (setting [22]), -1%; in experiment [11] (setting [23]), -4%; in experiment [12] (setting [24]), 8%.

These data come from publication PMC9516332 (Frontiers in Oncology, 2022).
